Laboratory results taken from EP2226073A1, “Topical pharmaceutical composition comprising an antiseptic and arginine for wound healing” (EURO-CELTIQUE S.A., priority 2009, dated 2010).

System: Human ciliated epithelium cells
Method: Human ciliated epithelium cells were analyzed by an in vitro method which allows for determining ciliary activity or ciliary vibration. The corresponding cells were exposed and incubated with 100 µl test substance at a temperature of 37°C. After an incubation period of 5 min ciliary vibration was measured.
By using this in vitro method, a nutrient solution (Dulbeco) as a standard, a 0.2% chlorohexidine solution (a common antiseptic agent), conventional polyvidone iodine solutions (Betaisodona) of different concentrations (5.0%, 2.5%, and 1.25% PVP-iodine), and a liposomal solution containing 4.5% PVP-iodine were tested.

[H]/N=C(\N/C(=N/[H])NCCCCCCNC(=N)NC(=N)Nc1ccc(Cl)cc1)Nc1ccc(Cl)cc1 [chlorohexidine]
ciliary vibration: decrease of the measured ciliary vibration
